From patent US20020054941A1, “Methods and compositions to enhance tenderness and value of meat” (The Board of Regents of the University of Nebraska, priority 2000, published 2002)
Entries after “also recorded” stand apart in the source; their conditions may differ. Marks after values point to notes of the source that are not given here.

What was measured:
[1] = test system: supraspinatus beef muscles; test: Glycogen content, pre-rigor injection of whole muscle
Protocol: (§1) Experiment were conducted to test the effects of pre-rigor injection of several compounds. Effects of these compounds on pH, color, tenderness and other related traits of low-value beef cuts were investigated. Ten steers (22 to 24 mo of age, 515 to 676 kg live weight) were slaughtered according to current industry procedures. Pre-rigor semimembranosus (from the round), triceps brachii and supraspinatus muscles (from the chuck) were excised, after evisceration (approximately 1 hour post-mortem), from both sides of the carcass. Muscle sections were randomly assigned to the treatments: sodium citrate (NaC; 200 mM), sodium fluoride (NaF; 200 mM), sodium acetate (NaA; 200 mM), and calcium chloride (CaCl2; 300 mM). The control samples remained on the carcass at 2° C. for 24 hours to simulate commercial conditions. Following a cooling, control muscles were removed from each carcass (4 replicates), vacuum packaged and transferred to the holding cooler with the other cuts at 2° C. Calcium chloride treatment was included to be compared with the other treatments.
(§2) At 2 hours post-mortem, each muscle was injected with a volume equal to 8% of the muscle weight using a four-needle hand injector. The temperature of solutions were 4° C. Each muscle was individually treated (2% of solution was added to give a total of 10% of muscle weight) and tumbled in a 75-pound capacity tumbler (Röschermatic, Oshabrück, Germany) for 30 min to insure uniform distribution of the solution.
(§3) Samples of each muscle (approximately 100 g) were taken at 0 hour (before injection), 24, and 72 hours after injection for determination of pH, oxidation-reduction potential, glycogen content, R-values, NAD, and NADH. The samples were then immediately frozen in liquid nitrogen and stored at −80° C. until they were powdered and analyzed. Fresh muscle samples (approximately 20 g) were taken at 72 hours after injection and assayed immediately for water holding capacity and sarcomere length.
(§4) Glycogen extraction was performed in duplicate with 3 g of frozen-powdered muscle sample, which was homogenized with 0.6 N perchloric acid. Amylo-α-1,4-α-1,6- glucosidase from Aspergillus niger (No. A3514. Sigma Chemical, St. Louis, Mo.) was used for the breakdown of the glycogen molecules to free glucose following the method described by Roehrig and Allred (1974). Homogenate was incubated for 2 hours at 37° C., then 100 μL of 3 N perchloric acid was added to precipitate the proteins. After centrifugation, the supernatant was stored at 0-4° C., until analyzed, which was within 2 weeks.
(§5) The assay for glucose was run as described by Dalrymple and Hamm (1973) and Roehrig and Allred (1974), using glucose-6-phosphate dehydrogenase (No. G8878. Sigma Chemical, St. Louis, Mo.) and hexokinase (No. H5500. Sigma Chemical, St. Louis, Mo.). Briefly, the method involves an exoglucosidase, Amylogucosidase, from Aspergillus niger which hydrolyses the -α-D-(1-4) and -α-D-(1-6)-linkages of glycogen. The glucose formed is specifically determined with hexokinase and glucose-6-phosphate dehydrogenase. The glucose liberated after hydrolysis of glycogen is proportional to the increase of absorbance measured at 340 nm. Fifty μL of sample was incubated with 1 mL ATP, NADP, Glucose-6-phosphate dehydrogenase buffer and 5 μL hexokinase at 37° C. for 15 min. Absorbance was measured at 340 nm wavelength, light path=1 cm. The muscle glycogen content was calculated with the following formula: Glycogen (μmol glucose/g wet muscle weight)=111.882×absorbance. 111.882 is the dilution factor.

[2] = test system: triceps brachii beef muscles; test: as above; settings: 200 mM, calcium chloride 300 mM
Protocol: as §1, §2, §3, §4, §5

[3] = test system: semimembranosus beef muscles; test: Warner-Bratzler shear force, pre-rigor injection of whole muscle; settings: 200 mM, calcium chloride 300 mM
Protocol: as §1, §2
(§6) Tenderness of samples was evaluated by measuring Warner-Bratzler shear force. Steaks (2.54-cm thick) from the middle of each muscle were cut and frozen at 3, 7 and 14 days postmortem. Frozen steaks (2.54 cm thick) were thawed at 4° C. for 24 hours and cooked on Farberware Open Hearth Broilers (Model 350A Walter Kidde, Bronx, N.Y.) to an internal temperature of 40° C., turned, and cooked to a final internal temperature of 70° C. (AMSA, 1995). Temperature was monitored using an OMEGA thermocouple thermometer type T (Omega Engineering, Inc., Stamford, Conn.) inserted into the geometric center of a steak. The cooked steaks were chilled 2 hours at 2° C., and then 8 cores (1.27-cm diameter) were removed parallel to the muscle fiber orientation. Cores were sheared once each on an Instron Universal Testing Machine model 55R1123 (Instron, Canton, Mass.) with a Warner-Braztler attachment. The Instron was set up with a 500 kg load cell, full scale load=1 (0-10 kg), and crosshead speed=250 mm/mim.

[4] = test system: supraspinatus beef muscles; test: as above; settings: 200 mM
Protocol: as §1, §2, §6

[5] = test system: triceps brachii beef muscles; test: as above; settings: 200 mM, calcium chloride 300 mM; for Shear force, 3 d: 3 d postmortem; for Shear force, 7 d: 7 d postmortem
Protocol: as §1, §2, §6

[6] = test system: Infraspinatus (ISP) steaks; test: Consumer panel palatability ratings of steaks; design: species or system steers; settings: for Flavor / Tenderness: ISP, 9-point hedonic scale
Protocol: (§7) Thoracic limbs from 14 steers were chilled on the carcass (controls) or removed within 2 hours post-mortem and pumped to 10% of muscle weight with water, 200 mM or 400 mM sodium citrate solutions. The injections were performed at various sites along the muscle. The control remained on the carcass. Muscle pH and temperature were measured immediately prior to pumping. Experimental and control muscles were chilled at 2° C. for 24 hours. Steaks (2.54 cm thick) were removed after 24 hours from the Infraspinatus, Supraspinatus and Triceps brachii muscles and were either frozen immediately or aged for another 6 days and then evaluated. A consumer panel evaluated palatability juiciness, tenderness, connective tissue amount, and flavor desirability) on Infraspinatus and Triceps brachii steaks using 9-point hedonic scales (1 being very undesirable and 9 being very desirable) for each trait. Warner-Bratzler shear force values were determined on 1.27 cm-diameter cores from steaks that were broiled to an internal temperature of 70° C.

[7] = test system: Triceps brachii (TBR) steaks; test: Consumer panel palatability ratings of steaks; design: species or system steers; settings: for Flavor / Tenderness: TBR, 9-point hedonic scale
Protocol: as §7

[8] = 400 mM, Infraspinatus, day 1 and day 7, P<0.10, data not shown
[9] = 400 mM, Triceps brachii, day 1 and day 7, P<0.10, data not shown

**Q.** Which results are given for `O=C([O-])CC(O)(CC(=O)[O-])C(=O)[O-].[Na+].[Na+].[Na+]` [Sodium citrate, sodium citrate]?
**A.** Glycogen, 0 h ([1]; 0 h (before injection)): 45.18 μmol/g muscle; Glycogen, 24 h ([1]; 24 h, 200 mM, calcium chloride 300 mM): 30.43 μmol/g muscle; Glycogen, 72 h ([1]; 72 h, 200 mM, calcium chloride 300 mM): 22.65^ab μmol/g muscle; Glycogen, 0 h ([2]; 0 h (before injection)): 38.74 μmol/g muscle; Glycogen, 24 h ([2]; 24 h): 32.93^b μmol/g muscle; Glycogen, 72 h ([2]; 72 h): 27.58^b μmol/g muscle; Shear force, 3 d ([3]; 3 d postmortem): 5.14 kg; Shear force, 7 d ([3]; 7 d postmortem): 4.41 kg; Shear force, 14 d ([3]; 14 d postmortem): 3.96 kg; Shear force, 3 d ([4]; 3 d postmortem, calcium chloride 300 mM): 5.06^c kg; Shear force, 7 d ([4]; 7 d postmortem, calcium chloride 300 mM): 4.89^b kg; reduced shear force compared with controls ([4]; supraspinatus, 3 days post-mortem, CaCl2 300 mM): 2.22 kg; Shear force, 3 d [5]: 4.54^c kg; Shear force, 3 d ([5]; listed as NaC): most tender meat; also recorded: more tender; Shear force, 7 d [5]: 4.20^c kg; Shear force, 7 d ([5]; listed as NaC): lower shear force values than CaCl2; Shear force, 14 d ([5]; 14 d postmortem): 3.69 kg; Flavor ([6]; 200 mM, d1): 5.33^a,b; Tenderness ([6]; 200 mM, d1): 5.36^a,b; Flavor ([6]; 200 mM, d7): 5.35^a; Tenderness ([6]; 200 mM, d7): 5.68^a; Flavor ([6]; 400 mM, d1): 5.49^a*; Tenderness ([6]; 400 mM, d1): 5.67^a; Flavor ([6]; 400 mM, d7): 5.41^a; Tenderness ([6]; 400 mM, d7): 5.90^a; Connective tissue amount rating vs controls [6, 8]: more desirable; Juiciness rating vs controls [6, 8]: more desirable; Flavor ([7]; 200 mM, d1): 5.23^a; Tenderness ([7]; 200 mM, d1): 4.81^b; Flavor ([7]; 200 mM, d7): 4.87^a; Flavor ([7]; 400 mM, d1): 5.30^a*; Tenderness ([7]; 400 mM, d1): 5.25^a; Flavor ([7]; 400 mM, d7): 5.18^a; Tenderness ([7]; 400 mM, d7): 5.48^a; Connective tissue amount rating vs controls [7, 9]: more desirable; Juiciness rating vs controls [7, 9]: more desirable
